The values below come from US20240239790A1, “7-Morpholino-1,6-Naphthyridin-5-yl Derivatives and Pharmaceutical Compositions Thereof Useful as DNA-PK Inhibitor” (adMare Therapeutics Society, priority 2021, published 2024).

Structures are written as SMILES. Read-outs that look alike come from different tables or passages of the source. Some results are limits rather than exact numbers.

One assay has as its target T1, DNA-PK (Homo sapiens, UniProt P78527).
T1 construct: purchased Invitrogen PR9107A
As to the kind of experiment: DNA-PK Assay for Biochemical Enzymatic Inhibition (ADP Glo Kinase assay). To be noted: DNA-PK enzyme, Table 1. How it is done: A biochemical assay was performed to identify IC50 values against DNA-PK activity in a two-step reaction with a kinase reaction followed by ADP Glo™ Kinase assay Kit (Promega V9102).
Three-fold serial dilutions of compounds in DMSO were prepared in kinase assay buffer (50 mM HEPES pH 7.5, 20 mM MgCl2, 100 mM KCl, 50 μM DTT, 10 μg/ml calf thymus DNA, 0.01% Tween 20). Kinase assay buffer was used to prepare compound treatments to 0.02% DMSO (dimethyl sulphoxide) content. DMSO controls were prepared to produce a maximum and minimum luminescence signal for normalization. Substrate (Anaspec, AS-60210-5) and ATP (Promega V9102) and ATP mix was prepared by dilution in kinase assay buffer for 434.4 μM and 64.4 μM final assay concentrations, respectively. Compounds and control were added to 25 ng DNA-PK enzyme (Invitrogen, PR9107A) diluted in kinase buffer in assay plate (Corning 267459) and incubated for 15 minutes at room temperature prior to addition of substrate and ATP mix.
Throughout the assay, each time a reagent was added to the microplate, it was centrifuged for 1 minute at 1300 rcf. All reagents were added, and incubations carried out at room temperature. The reaction was then incubated for 60 minutes. ADP-ATP standards at 0, 4, 10, 40, 80, and 100% ADP (prepared as specified in the ADP Glo™ Kinase assay kit) were also added to the microplate at a volume equal to the total kinase reaction. The ADP Glo™ Kinase Assay kit was then used to quantify DNA-PK activity: following the 60-minute incubation, a 1:1 volume of ADP Glo reagent was added to all wells, then following a further 45-minute incubation, a 1:1 volume of Kinase Detection Reagent was added to all wells. After this two-step assay, plates were incubated in a Synergy-Neo2 plate reader for 30 minutes with gentle shaking, followed by endpoint luminescent read Luminescence data was normalized by subtracting the background signal and expressing all background-adjusted values as a percentage of the average maximum signal. The data was then expressed as percent inhibition by subtracting from 100% (i.e. maximum luminescent signal will be 0% inhibition) and the resulting data plotted against ten concentration points on a logarithmic scale, using GraphPad Prism. Non-linear regression analysis was performed on each concentration response curve and the log [inhibitor] vs response—variable slope (four parameters) equation was selected to generate IC50 values.
In general terms: ADP-Glo turns the ADP formed in a reaction into a luminescent signal.

Assay [1] concerns the target T2, DNA-PK phosphorylation at Serine 2056 (Homo sapiens, UniProt P78527).
T2 construct: FaDu cells were purchased from ATCC; host or cells: FaDu
Description: Cellular Assay for Inhibition of DNA-PK Phosphorylation at Serine 2056 in FaDu cells (sandwich ELISA, neocarzinostatin). The format is cell-based. To be noted: pSer2056 DNA-PK, neocarzinostatin 1 μg/mL, Table 1. Put shortly:
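FaDu cells pre-treated with compound (0.3% DMSO) for 1 h, then neocarzinostatin 1 μg/mL final added for 2 h to induce DSBs. Protein-normalised lysates read by sandwich ELISA for total and pSer2056 DNA-PK; % inhibition normalised between DMSO and NCS controls, IC50 from variable-slope log(inhibitor) fit.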
In general terms: An ELISA detects its analyte on a solid surface through an enzyme-linked reagent.

Assay [2] relates to pDNA-PK induction in HCT116 tumour spheroids. Description: Multicellular tumour spheroid + radiation, pDNA-PK (ser2056) inhibition, immunohistochemical endpoint, HCT116. As to conditions: Homo sapiens, 20 Gy, 20% O2. It counts as cell-based. The method, then:
Multicellular tumour spheroids determination of compound inhibition of pDNA-PK induction following radiation. Tumour spheroids were grown to approximately 0.5 mm in diameter and irradiated with 20 Gy in combination with inhibitor test compounds to determine their potency. Inhibitor concentration for 50% reduction in pDNA-PK induction (IC50) was determined via immunohistochemical staining in spheroid cryosections taken 2 hours following radiation.
Spheroid+radiation pDNA-PK. Radiation: 20 Gy. Drug: serial dilution 5 or 10 μM down to 3.5 nM (11 wells). Spheroids: 3-6 spheroids per well (300-500 μm diameter). 20% 02 and 5% CO2. 96 well plate format.
Protocol: pre-incubate 1 hours with drug, irradiate with 20 Gy, post-incubate 2 hours with drug, freeze and cryosection ×3 replicates.
Endpoint: fluorescent immunostin pDNA-PK ser2056 and image on microscope.
Analysis: determine EC50 concentration that decreases pDNA-PK induction by 50% after radiation.
Multicellular tumour spheroids determination of compound inhibition of pDNA-PK induction following radiation. Tumour spheroids were grown to approximately 0.5 mm in diameter and irradiated with 20 Gy in combination with inhibitor test compounds to determine their potency. Inhibitor concentration for 50% reduction in pDNA-PK induction (IC50) was determined via immunohistochemical staining in spheroid cryosections taken 2 hours following radiation. For cell survival endpoint 8 Gy radiation was used and 3 hours following radiation spheroids were dissociated, counted and plated for colony forming endpoint.
Spheroid+radiation pDNA-PK. Radiation: 20 Gy. Drug: serial dilution 5 or 10 μM down to 3.5 nM (11 wells). Spheroids: 3-6 spheroids per well (300-500 μm diameter). 20% 02 and 5% CO2. 96 well plate format. Endpoint: fluorescent immunostain pDNA-PK ser2056 and image on microscope. Analysis: determine EC50 concentrations that decreases pDNA-PK induction by 50% after irradiation.
Multicellular tumour spheroids were used to determine potency of test compounds in a 3D tissue environment using inhibition of pDNA-PK induction following radiation or cell survival as the endpoint. For the pDNA-PK endpoint HCT116 or FaDU tumour spheroids were grown to approximately 0.5 mm in diameter and irradiated with 20 Gy in combination with inhibitor test compounds to determine their potency. Experiments were carried out in 96 well plates containing 0.7 mls of MEM media containing 10% FBS and 10 mM glucose under 20% O2 & 5% CO2 at 37° C. Following dilution of compounds 1:1000 from DMSO stocks, compounds were serially diluted from 10 μM down to 3.5 nM and 5-10 spheroids added. 96 well plates were constantly stirred to avoid spheroids settling during the course of the experiment. The inhibitor concentration for 50% reduction in pDNA-PK induction (EC50) was determined via immunohistochemical staining in spheroid cryosections taken 2 hours following radiation using anti-pDNA-PK (ser 2056) and fixed immediately in formalin following sectioning. For cell survival endpoint 8 Gy radiation was used and, 3 hours following radiation, spheroids were dissociated, counted and plated for colony forming endpoint. Data presented in the table compound potency as EC50 [μM].

Where [3] appears, read: HCT-116, 2 hours following radiation, Example 9 Study 2, read-out: Spheroid Cell line: HCT116 Immunohistochemical endpoint pDNA-PK inhibition EC50.
Where [4] appears, read: HCT-116, Spheroid, Cell Line: HCT115 (so in the source), 2 hours following radiation, Example 7, read-out: EC50, Immunohistochemical endpoint, pDNA-PK inhibition.
Setting [5] is: HCT-116, 2 h, spheroids, Example 8, read-out: Cell line: HCT116 Immunohistochemical endpoint pDNA-PK inhibition EC50.

As a reminder, the IC50 is the concentration that inhibits the measured activity by half. One may read the EC50 as the concentration giving half of the maximal effect. Consider `O=C(O)COc1cnc(N[C@H]2CC[C@@H](Oc3nc(N4CCOCC4)cc4ncc(C(=O)O)cc34)CC2)nc1` [Compound 181, 5-(((1s,4s)-4-((5-(carboxymethoxy)pyrimidin-2-yl)amino)cyclohexyl)oxy)-7-morpholino-1,6-naphthyridine-3-carboxylic acid], for which the IC50 was less than 0.0005 µM on DNA-PK and 10 to 30 µM in assay [1]. Also, the 50% effective concentration (EC50) in assay [2] (setting [3]) and in assay [2] (setting [4]) was 10 to 100 µM in each case.
As for `CN(C)C(=O)N[C@H]1CC[C@@H](Oc2nc(N3CCOCC3)cc3ncccc23)CC1` [Compound 153, 1,1-Dimethyl-3-((1s,4s)-4-((7-morpholino-1,6-naphthyridin-5-yl)oxy)cyclohexyl)urea], the IC50 on DNA-PK fell in the range of 0.001 to 0.01 µM; in assay [1], 0.1 to 1 µM. Moreover, the EC50 in assay [2] (setting [5]), in assay [2] (setting [3]) and in assay [2] (setting [4]) was 10 to 100 µM each time.
As to `O=S1(=O)CCCN1c1cnc2cc(N3CCOCC3)nc(O[C@H]3CC[C@@H](Nc4ncccn4)CC3)c2c1` [Compound 195, 2-(7-morpholino-5-(((1s,4s)-4-(pyrimidin-2-ylamino)cyclohexyl)oxy)-1,6-naphthyridin-3-yl)isothiazolidine 1,1-dioxide], the IC50 lay within 0.01 to 0.15 µM on DNA-PK and 1 to 10 µM in assay [1]. The concentration giving a half-maximal response (EC50) in assay [2] (setting [3]) and in assay [2] (setting [4]) was 10 to 100 µM in each case.
As to `c1cnc2cc(N3CCOCC3)nc(O[C@H]3CC[C@@H](Nc4ncc(OCc5ncco5)cn4)CC3)c2c1` [Compound 78, N-((1s,4s)-4-((7-Morpholino-1,6-naphthyridin-5-yl)oxy)cyclohexyl)-5-(oxazol-2-ylmethoxy)pyrimidin-2-amine], the concentration for half-maximal inhibition (IC50) fell in the range of 0.0005 to 0.001 µM on DNA-PK and 0.1 to 1 µM in assay [1]. In addition, the EC50 in assay [2] (setting [3]) and in assay [2] (setting [4]) was 1 to 10 µM throughout.
Regarding `c1ccc(CSc2cnc3cc(N4CCOCC4)nc(O[C@H]4CC[C@@H](Nc5ncccn5)CC4)c3c2)cc1` [Compound 200c, N-((1s,4s)-4-((3-(benzylthio)-7-morpholino-1,6-naphthyridin-5-yl)oxy)cyclohexyl)pyrimidin-2-amine], the half-maximal inhibitory concentration (IC50) on DNA-PK fell in the range of 0.01 to 0.15 µM; in assay [1], 10 to 30 µM. Also, the concentration for a half-maximal effect (EC50) in assay [2] (setting [3]) and in assay [2] (setting [4]) was 10 to 100 µM each time.
For `CN(C)S(=O)(=O)Nc1cnc2cc(N3CCOCC3)nc(O[C@H]3CC[C@@H](Nc4ncccn4)CC3)c2c1` [Compound 194, N-[(1s,4s)-4-({3-[(dimethylsulfamoyl)amino]-7-(morpholin-4-yl)-1,6-naphthyridin-5-yl}oxy)cyclohexyl]pyrimidin-2-amine], the figures for the IC50 (at DNA-PK; in assay [1]) were less than 0.0005 µM and 0.1 to 1 µM, respectively. Besides, the 50% effective concentration (EC50) in assay [2] (setting [3]) and in assay [2] (setting [4]) was 1 to 10 µM throughout.
For the compound `O=C(COc1cnc(N[C@H]2CC[C@@H](Oc3nc(N4CCOCC4)cc4ncccc34)CC2)nc1)N1CCSCC1` [Compound 73, 2-((2-(((1s,4s)-4-((7-Morpholino-1,6-naphthyridin-5-yl)oxy)cyclohexyl)amino)pyrimidin-5-yl)oxy)-1-thiomorpholinoethan-1-one], the IC50 fell in the range of 0.0005 to 0.001 µM at DNA-PK and 0.1 to 1 µM in assay [1]. For the same compound, the EC50 in assay [2] (setting [3]) and in assay [2] (setting [4]) was 1 to 10 µM in each case.
In the case of `Cn1ccnc1COc1cnc(N[C@H]2CC[C@@H](Oc3nc(N4CCOCC4)cc4ncccc34)CC2)nc1` [Compound 79, 5-((1-methyl-1H-imidazol-2-yl)methoxy)-N-((1s,4s)-4-((7-morpholino-1,6-naphthyridin-5-yl)oxy)cyclohexyl)pyrimidin-2-amine], the IC50 lay in the range of 0.0005 to 0.001 µM at DNA-PK and 0.1 to 1 µM in assay [1]. Also, the EC50 in assay [2] (setting [3]) and in assay [2] (setting [4]) was 1 to 10 µM throughout.
As to `CSc1cnc2cc(N3CCOCC3)nc(O[C@H]3CC[C@@H](Nc4ncccn4)CC3)c2c1` [Compound 200d, N-((1s,4s)-4-((3-(methylthio)-7-morpholino-1,6-naphthyridin-5-yl)oxy)cyclohexyl)pyrimidin-2-amine], the 50% inhibitory concentration (IC50) fell in the range of 0.001 to 0.01 µM on DNA-PK and 0.1 to 1 µM in assay [1]. Further, the half-maximal effective concentration (EC50) in assay [2] (setting [3]) and in assay [2] (setting [4]) was 1 to 10 µM throughout.
In the case of `O=S(=O)(Nc1cnc2cc(N3CCOCC3)nc(O[C@H]3CC[C@@H](Nc4ncccn4)CC3)c2c1)C1CCC1` [Compound 191, N-(7-morpholino-5-(((1s,4s)-4-(pyrimidin-2-ylamino)cyclohexyl)oxy)-1,6-naphthyridin-3-yl)cyclobutanesulfonamide], the half-inhibitory concentration (IC50) at DNA-PK is 0.001 to 0.01 µM; in assay [1], 0.1 to 1 µM. Besides, the EC50 in assay [2] (setting [3]) and in assay [2] (setting [4]) was 10 to 100 µM in each case.
As for `O=S(=O)(Nc1cnc2cc(N3CCOCC3)nc(O[C@H]3CC[C@@H](Nc4ncccn4)CC3)c2c1)C1CCCC1` [Compound 190, N-(7-morpholino-5-(((1s,4s)-4-(pyrimidin-2-ylamino)cyclohexyl)oxy)-1,6-naphthyridin-3-yl)cyclopentanesulfonamide], on DNA-PK, the IC50 lay within 0.01 to 0.15 µM. The concentration giving a half-maximal response (EC50) in assay [2] (setting [3]) and in assay [2] (setting [4]) was 10 to 100 µM throughout.
Turning to `CCOC(=O)c1cnc2cc(N3CCOCC3)nc(O[C@H]3CC[C@@H](Nc4ncc(OCC(=O)N(C)C)cn4)CC3)c2c1` [Compound 179, ethyl 5-(((1s,4s)-4-((5-(2-(dimethylamino)-2-oxoethoxy)pyrimidin-2-yl)amino)cyclohexyl)oxy)-7-morpholino-1,6-naphthyridine-3-carboxylate], the IC50 lay within 0.001 to 0.01 µM at DNA-PK and 1 to 10 µM in assay [1]. The concentration giving a half-maximal response (EC50) in assay [2] (setting [5]) fell in the range of 1 to 10 µM; in assay [2] (setting [3]) it was 10 to 100 µM; in assay [2] (setting [4]) it was 10 to 100 µM.
